Where a name gives a salt, the structure may show the parent alone.

Our source for the EC50 values is patent US8304438B2, “Heteroarylacrylamides and their use as pharmaceuticals” (Sanofi, priority 2006, dated 2012).

This assay has as its system eNOS promoter. As to the kind of experiment: Activation of eNOS transcription (eNOS promoter firefly luciferase reporter gene assay). To be noted: human endothelial cell line stable transfected with eNOS promoter-luciferase construct; 18 h incubation; EC50 determined graphically; read-out: EC50 values of transcription induction ratios (TIR). Format: cell-based. The method, then: Activation of eNOS transcription was measured as described in detail by L^1 et al., “Activation of protein kinase C alpha and/or epsilon enhances transcription of the human endothelial nitric oxide synthase gene”, Mol. Pharmacol. 53 (1998) 630. Briefly, a 3.5 kB long fragment 5′ of the starting codon of the eNOS gene was cloned, sequenced and cloned in firefly luciferase expression plasmids to monitor activation of the eNOS promoter by reporter gene activity. A human endothelial cell line stable transfected and expressing this promoter-reporter construct was used for compound testing. Cells were incubated for 18 h with the compounds.
All compounds were dissolved in sterile dimethyl sulfoxide (DMSO). A final concentration of 0.5% DMSO in complete medium was allowed. Induction of reporter gene expression in these cells was measured using a standard luciferase assay system (Promega, Cat. No. E150) according to the manufacturer's instructions. Luciferase induction in cells incubated with compounds were compared to those incubated with solvent alone. The ratio of both activities (transcription induction ratio, TIR) was plotted as a function of compound concentration. Typically, TIR values started at low concentrations at a ratio of 1, indicating no compound effect, and extended up to a maximum TIR value TIR(max) which indicates the increase of the eNOS transcription. EC50 values of transcription induction ratios as a function of compound concentration were determined graphically.
(In a reporter assay the amount or activity of a reporter protein is the signal.)
Regarding `O=C(/C=C/c1ccc(Oc2ccc(F)cc2)nc1)N1CCCCC1` [Example 76, 3-[6-(4-Fluoro-phenoxy)-pyridin-3-yl]-1-(piperidin-1-yl)-propenone Trifluoroacetic Acid Salt], the EC50 lay within 500 to 5000 nM.

`C/C(=C\C(=O)N(C)C)c1ccc(-c2ccccc2F)nc1` [Example 110, 3-[6-(2-Fluoro-phenyl)-pyridin-3-yl]-but-2-enoic Acid Dimethylamide Trifluoroacetic Acid Salt]: the EC50 was less than 500 nM.

For `O=C(/C=C/c1ccc(-c2ccccc2OC(F)(F)F)o1)N1CCCCC1` [Example 13, 1-(Piperidin-1-yl)-3-[5-(2-trifluoromethoxy-phenyl)-furan-2-yl]-propenone], the EC50 fell in the range of 500 to 5000 nM.

On to `O=C(/C=C/c1ccc(-c2ccccc2F)s1)Nc1ccccc1` [Example 150, 3-[5-(2-Fluoro-phenyl)-thiophen-2-yl]-N-phenyl-acrylamide], for which the EC50 was in the range of 500 to 5000 nM.

As for `C/C(=C\C(=O)N1CCCCC1)c1cc(-c2ccccc2F)cs1` [Example 123, 3-[4-(2-Fluoro-phenyl)-thiophen-2-yl]-1-(piperidin-1-yl)-but-2-en-1-one], the EC50 was in the range of 500 to 5000 nM.

`CC(C)N(C(=O)/C=C/c1nc(-c2ccc(F)cc2)cs1)C(C)C` [Example 145, 3-[4-(4-Fluoro-phenyl)-thiazol-2-yl]-N,N-diisopropyl-acrylamide]: the EC50 is less than 500 nM.

Take `O=C(/C=C/c1nc(-c2ccc(F)cc2)cs1)Nc1ccccn1` [Example 116, 3-[4-(4-Fluoro-phenyl)-thiazol-2-yl]-N-(pyridin-2-yl)-acrylamide]: the EC50 was in the range of 500 to 5000 nM.

As to `O=C(/C=C/c1ccc(-c2cc3ccccc3s2)nc1)N1CCCCC1` [Example 125, 3-(6-(Benzo[b]thiophen-2-yl)-pyridin-3-yl)-1-(piperidin-1-yl)-propenone], the EC50 is 500 to 5000 nM.

Consider `O=C(/C=C/c1cnc2ccccc2c1)N1CCCCC1` [Example 1, 1-(Piperidin-1-yl)-3-(quinolin-3-yl)-propenone], for which the EC50 was in the range of 500 to 5000 nM.

Regarding `CC(C)(C)NC(=O)/C=C/c1nc(-c2ccc(F)cc2)cs1` [Example 146, N-tert-Butyl-3-[4-(4-fluoro-phenyl)-thiazol-2-yl]-acrylamide], the EC50 is less than 500 nM.

As to `O=C(/C=C/c1cc(-c2ccccc2F)cs1)N1CCCCC1` [Example 15, 3-[4-(2-Fluoro-phenyl)-thiophen-2-yl]-1-(piperidin-1-yl)-propenone], the EC50 was less than 500 nM.
